Reference: ChEMBL document CHEMBL2331453, “Arundinols A-C and arundinones A and B from the plant endophytic fungus Microsphaeropsis arundinis” (J Nat Prod, 2013)
Values after ≈ are worked out from the molar mass of the structure shown.

Columns and labels:
Staphylococcus aureus = experiment: Antibacterial activity against Staphylococcus aureus ATCC 6538 after 24 hrs; type: functional; settings: ATCC 6538, 24 h
A549 = experiment: Cytotoxicity against human A549 cells after 48 hrs by MTS assay; type: functional, cell-based; settings: A549, 48 h
T-24 = experiment: Cytotoxicity against human T24 cells after 48 hrs by MTS assay; type: functional, cell-based; settings: T-24, 48 h

MIC (Staphylococcus aureus)	Compound	IC50 (A549)	IC50 (T-24)
0.46 µg/mL (≈ 1.32 µM)	CC1(C)S[C@@H]2[C@H](NC(=O)[C@H](N)c3ccccc3)C(=O)N2[C@H]1C(=O)O [AMPICILLIN]	–	–
–	COc1c(O)c(-c2c(O)c(OC)c(OC)c3c2OC(C)(O)C3=O)c2c(c1OC)C(=O)C(C)(O)O2 (centres undefined) [ARUNDINONE B]	81.6 µM	35.4 µM
11.4 µg/mL (≈ 48.6 µM)	C=C(C)[C@@H]1CC[C@]2(C)C(=C(C)C(=O)C[C@H]2O)C1 [LIGUCYPERONOL]	–	–
